Measurements: the supplement of paper PMC10307832

Tests used:
Assay in all cases: relative viability (nuclei count vs DMSO), 5 days (fraction); higher = more cells survive
[1] = system: ABC-1
Procedure, shortened: (§1)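 Relative viability divides the nuclei count in treated wells by that in vehicle wells. Lung cancer cell lines were seeded in 1536-well plates, dosed by pin tool the next day, and fixed and stained after 5 days in one step with final 0.05% Triton X-100, 1% formaldehyde and 1 ug/ml Hoechst. Dosing was a single drug or a fixed anchor-drug dose plus five library-drug doses (not always all listed) in √10 steps, and values are medians of duplicate plates imaged at 4×.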

[2] = system: COR-L23
Procedure, shortened: as §1

[3] = system: EPLC-272H
Procedure, shortened: as §1

[4] = system: HARA
Procedure, shortened: as §1

[5] = system: HCC-15
Procedure, shortened: as §1

[6] = system: HCC-44
Procedure, shortened: as §1

[7] = system: HOP-62
Procedure, shortened: as §1

[8] = system: LC-2-ad
Procedure, shortened: as §1

[9] = system: LU99A
Procedure, shortened: as §1

[10] = system: NCI-H1355
Procedure, shortened: as §1

[11] = system: NCI-H1651
Procedure, shortened: as §1

[12] = system: NCI-H1915
Procedure, shortened: as §1

[13] = system: NCI-H1993
Procedure, shortened: as §1

[14] = system: NCI-H2023
Procedure, shortened: as §1

[15] = system: NCI-H2085
Procedure, shortened: as §1

[16] = system: NCI-H2126
Procedure, shortened: as §1

[17] = system: NCI-H2347
Procedure, shortened: as §1

[18] = system: NCI-H650
Procedure, shortened: as §1

[19] = system: NCI-H838
Procedure, shortened: as §1

[20] = system: PC-14
Procedure, shortened: as §1

[21] = system: SW 1573
Procedure, shortened: as §1

[22] = system: UMC-11
Procedure, shortened: as §1

## COc1nc(C)cnc1NS(=O)(=O)c1cccnc1-c1ccc(-c2nnco2)cc1 [Zibotentan] + CC(C)C[C@H](NC(=O)[C@H](Cc1ccccc1)NC(=O)c1cnccn1)B(O)O [Bortezomib] (partner 0.002 µM)
[1]; first compound 0.08 µM
  relative viability: 0.348
[1]; first compound 0.253 µM
  relative viability: 0.289
[1]; first compound 0.8 µM
  relative viability: 0.374
[1]; first compound 2.53 µM
  relative viability: 0.316
[2]; first compound 0.08 µM
  relative viability: 0.999
[2]; first compound 0.253 µM
  relative viability: 0.917
[2]; first compound 0.8 µM
  relative viability: 0.98
[2]; first compound 2.53 µM
  relative viability: 1.07
[3]; first compound 0.08 µM
  relative viability: 1.04
[3]; first compound 0.253 µM
  relative viability: 0.906
[3]; first compound 0.8 µM
  relative viability: 0.843
[3]; first compound 2.53 µM
  relative viability: 0.862
[4]; first compound 0.08 µM
  relative viability: 1.18
[4]; first compound 0.253 µM
  relative viability: 1.13
[4]; first compound 0.8 µM
  relative viability: 1.15
[4]; first compound 2.53 µM
  relative viability: 1.19
[5]; first compound 0.08 µM
  relative viability: 0.99
[5]; first compound 0.253 µM
  relative viability: 1.01
[5]; first compound 0.8 µM
  relative viability: 0.979
[5]; first compound 2.53 µM
  relative viability: 1.09
[6]; first compound 0.08 µM
  relative viability: 0.909
[6]; first compound 0.253 µM
  relative viability: 0.894
[6]; first compound 0.8 µM
  relative viability: 0.959
[6]; first compound 2.53 µM
  relative viability: 0.883
[7]; first compound 0.08 µM
  relative viability: 0.732
[7]; first compound 0.253 µM
  relative viability: 0.625
[7]; first compound 0.8 µM
  relative viability: 1.08
[7]; first compound 2.53 µM
  relative viability: 0.724
[8]; first compound 0.08 µM
  relative viability: 1.03
[8]; first compound 0.253 µM
  relative viability: 0.932
[8]; first compound 0.8 µM
  relative viability: 0.921
[8]; first compound 2.53 µM
  relative viability: 1.07
[9]; first compound 0.08 µM
  relative viability: 1.3
[9]; first compound 0.253 µM
  relative viability: 1.13
[9]; first compound 0.8 µM
  relative viability: 1.23
[9]; first compound 2.53 µM
  relative viability: 1.17
[10]; first compound 0.08 µM
  relative viability: 1.2
[10]; first compound 0.253 µM
  relative viability: 1.36
[10]; first compound 0.8 µM
  relative viability: 1.05
[10]; first compound 2.53 µM
  relative viability: 1.24
[11]; first compound 0.08 µM
  relative viability: 0.981
[11]; first compound 0.253 µM
  relative viability: 0.871
[11]; first compound 0.8 µM
  relative viability: 0.902
[11]; first compound 2.53 µM
  relative viability: 0.972
[12]; first compound 0.08 µM
  relative viability: 1.1
[12]; first compound 0.253 µM
  relative viability: 0.986
[12]; first compound 0.8 µM
  relative viability: 1.01
[12]; first compound 2.53 µM
  relative viability: 0.965
[13]; first compound 0.253 µM
  relative viability: 1.05
[13]; first compound 0.8 µM
  relative viability: 0.994
[13]; first compound 2.53 µM
  relative viability: 1.8
[14]; first compound 0.08 µM
  relative viability: 1.04
[14]; first compound 0.253 µM
  relative viability: 0.87
[14]; first compound 0.8 µM
  relative viability: 0.909
[14]; first compound 2.53 µM
  relative viability: 0.966
[15]; first compound 0.08 µM
  relative viability: 1.06
[15]; first compound 0.253 µM
  relative viability: 0.941
[15]; first compound 0.8 µM
  relative viability: 1.07
[15]; first compound 2.53 µM
  relative viability: 1.14
[16]; first compound 0.08 µM
  relative viability: 1.19
[16]; first compound 0.253 µM
  relative viability: 1.15
[16]; first compound 0.8 µM
  relative viability: 1.15
[16]; first compound 2.53 µM
  relative viability: 1.16
[17]; first compound 0.08 µM
  relative viability: 1.08
[17]; first compound 0.253 µM
  relative viability: 0.871
[17]; first compound 0.8 µM
  relative viability: 1.04
[17]; first compound 2.53 µM
  relative viability: 0.734
[18]; first compound 0.08 µM
  relative viability: 0.769
[18]; first compound 0.253 µM
  relative viability: 0.742
[18]; first compound 0.8 µM
  relative viability: 0.726
[18]; first compound 2.53 µM
  relative viability: 0.696
[19]; first compound 0.08 µM
  relative viability: 0.891
[19]; first compound 0.253 µM
  relative viability: 0.865
[19]; first compound 0.8 µM
  relative viability: 0.815
[19]; first compound 2.53 µM
  relative viability: 0.961
[20]; first compound 0.08 µM
  relative viability: 0.872
[20]; first compound 0.253 µM
  relative viability: 0.922
[20]; first compound 0.8 µM
  relative viability: 0.897
[20]; first compound 2.53 µM
  relative viability: 0.861
[21]; first compound 0.08 µM
  relative viability: 1
[21]; first compound 0.253 µM
  relative viability: 0.847
[21]; first compound 0.8 µM
  relative viability: 1.05
[21]; first compound 2.53 µM
  relative viability: 1.28
[22]; first compound 0.08 µM
  relative viability: 0.601
[22]; first compound 0.253 µM
  relative viability: 0.623
[22]; first compound 0.8 µM
  relative viability: 0.668
[22]; first compound 2.53 µM
  relative viability: 0.909

## O=c1cc(-c2cccc3c2Sc2ccccc2S3)oc(N2CCOCC2)c1 + CC(C)C[C@H](NC(=O)[C@H](Cc1ccccc1)NC(=O)c1cnccn1)B(O)O [Bortezomib] (partner 0.002 µM)
[1]; first compound 0.08 µM
  relative viability: 0.364
[1]; first compound 0.253 µM
  relative viability: 0.312
[1]; first compound 0.8 µM
  relative viability: 0.249
[1]; first compound 2.53 µM
  relative viability: 0.333
[1]; first compound 8 µM
  relative viability: 0.323
[2]; first compound 0.08 µM
  relative viability: 1.13
[2]; first compound 0.253 µM
  relative viability: 1.49
[2]; first compound 0.8 µM
  relative viability: 1.2
[2]; first compound 2.53 µM
  relative viability: 1
[2]; first compound 8 µM
  relative viability: 1.48
[3]; first compound 0.08 µM
  relative viability: 0.806
[3]; first compound 0.253 µM
  relative viability: 1.09
[3]; first compound 0.8 µM
  relative viability: 1.02
[3]; first compound 2.53 µM
  relative viability: 0.721
[3]; first compound 8 µM
  relative viability: 0.802
[4]; first compound 0.08 µM
  relative viability: 1.09
[4]; first compound 0.253 µM
  relative viability: 1.37
[4]; first compound 0.8 µM
  relative viability: 0.926
[4]; first compound 2.53 µM
  relative viability: 0.921
[4]; first compound 8 µM
  relative viability: 1.24
[5]; first compound 0.08 µM
  relative viability: 1.07
[5]; first compound 0.253 µM
  relative viability: 1.27
[5]; first compound 0.8 µM
  relative viability: 1.22
[5]; first compound 2.53 µM
  relative viability: 1
[5]; first compound 8 µM
  relative viability: 1.16
[6]; first compound 0.08 µM
  relative viability: 0.907
[6]; first compound 0.253 µM
  relative viability: 1.07
[6]; first compound 0.8 µM
  relative viability: 0.837
[6]; first compound 2.53 µM
  relative viability: 0.816
[6]; first compound 8 µM
  relative viability: 1.03
[7]; first compound 0.08 µM
  relative viability: 0.734
[7]; first compound 0.253 µM
  relative viability: 1.27
[7]; first compound 0.8 µM
  relative viability: 0.735
[7]; first compound 2.53 µM
  relative viability: 0.713
[7]; first compound 8 µM
  relative viability: 1.08
[8]; first compound 0.08 µM
  relative viability: 0.989
[8]; first compound 0.253 µM
  relative viability: 0.827
[8]; first compound 0.8 µM
  relative viability: 1.06
[8]; first compound 2.53 µM
  relative viability: 1.02
[8]; first compound 8 µM
  relative viability: 1.07
[9]; first compound 0.08 µM
  relative viability: 1.18
[9]; first compound 0.253 µM
  relative viability: 1.07
[9]; first compound 0.8 µM
  relative viability: 1.5
[9]; first compound 2.53 µM
  relative viability: 1.03
[9]; first compound 8 µM
  relative viability: 1.3
[10]; first compound 0.08 µM
  relative viability: 1.25
[10]; first compound 0.253 µM
  relative viability: 1.35
[10]; first compound 0.8 µM
  relative viability: 1.22
[10]; first compound 2.53 µM
  relative viability: 1.16
[10]; first compound 8 µM
  relative viability: 1.3
[11]; first compound 0.08 µM
  relative viability: 0.925
[11]; first compound 0.253 µM
  relative viability: 1.08
[11]; first compound 0.8 µM
  relative viability: 0.935
[11]; first compound 2.53 µM
  relative viability: 0.906
[11]; first compound 8 µM
  relative viability: 0.964
[12]; first compound 0.08 µM
  relative viability: 1.07
[12]; first compound 0.253 µM
  relative viability: 1.03
[12]; first compound 0.8 µM
  relative viability: 1.09
[12]; first compound 2.53 µM
  relative viability: 0.974
[12]; first compound 8 µM
  relative viability: 1.16
[13]; first compound 0.08 µM
  relative viability: 1.12
[13]; first compound 0.253 µM
  relative viability: 1.21
[13]; first compound 0.8 µM
  relative viability: 0.972
[13]; first compound 2.53 µM
  relative viability: 1.04
[13]; first compound 8 µM
  relative viability: 1.2
[14]; first compound 0.08 µM
  relative viability: 1
[14]; first compound 0.253 µM
  relative viability: 1.1
[14]; first compound 0.8 µM
  relative viability: 0.988
[14]; first compound 2.53 µM
  relative viability: 0.528
[14]; first compound 8 µM
  relative viability: 0.937
[15]; first compound 0.08 µM
  relative viability: 1.01
[15]; first compound 0.253 µM
  relative viability: 1.11
[15]; first compound 0.8 µM
  relative viability: 1.14
[15]; first compound 2.53 µM
  relative viability: 0.94
[15]; first compound 8 µM
  relative viability: 1.09
[16]; first compound 0.08 µM
  relative viability: 1.13
[16]; first compound 0.253 µM
  relative viability: 1.13
[16]; first compound 0.8 µM
  relative viability: 1.12
[16]; first compound 2.53 µM
  relative viability: 1.1
[16]; first compound 8 µM
  relative viability: 1.2
[17]; first compound 0.08 µM
  relative viability: 0.947
[17]; first compound 0.253 µM
  relative viability: 1.17
[17]; first compound 0.8 µM
  relative viability: 1.09
[17]; first compound 2.53 µM
  relative viability: 0.902
[17]; first compound 8 µM
  relative viability: 1.73
[18]; first compound 0.08 µM
  relative viability: 0.701
[18]; first compound 0.253 µM
  relative viability: 0.74
[18]; first compound 0.8 µM
  relative viability: 0.869
[18]; first compound 2.53 µM
  relative viability: 0.599
[18]; first compound 8 µM
  relative viability: 0.803
[19]; first compound 0.08 µM
  relative viability: 0.703
[19]; first compound 0.253 µM
  relative viability: 1.05
[19]; first compound 0.8 µM
  relative viability: 0.728
[19]; first compound 2.53 µM
  relative viability: 0.693
[19]; first compound 8 µM
  relative viability: 0.588
[20]; first compound 0.08 µM
  relative viability: 1.08
[20]; first compound 0.253 µM
  relative viability: 1.01
[20]; first compound 0.8 µM
  relative viability: 0.962
[20]; first compound 2.53 µM
  relative viability: 0.866
[20]; first compound 8 µM
  relative viability: 0.882
[21]; first compound 0.08 µM
  relative viability: 0.976
[21]; first compound 0.253 µM
  relative viability: 1.13
[21]; first compound 0.8 µM
  relative viability: 1.09
[21]; first compound 2.53 µM
  relative viability: 1.05
[21]; first compound 8 µM
  relative viability: 1.09
[22]; first compound 0.08 µM
  relative viability: 0.774
[22]; first compound 0.253 µM
  relative viability: 1.19
[22]; first compound 0.8 µM
  relative viability: 1.24
[22]; first compound 2.53 µM
  relative viability: 0.535
[22]; first compound 8 µM
  relative viability: 1.01
